Experiment: Analgesic effect (% MPE) by tail flick method after intravenous injection
Type: in vivo
Details: mice

buprenorphine hydrochloride
% MPE (0.08 hours after i.v. 2.4 mg/kg): 0%
% MPE (0.25 hours after i.v. 2.4 mg/kg): 53.7%
% MPE (0.5 hours after i.v. 2.4 mg/kg): 96.3%
% MPE (1 hour after i.v. 2.4 mg/kg): 100%
% MPE (2 hours after i.v. 2.4 mg/kg): 77.4%
% MPE (3 hours after i.v. 2.4 mg/kg): 93.3%
% MPE (5 hours after i.v. 2.4 mg/kg): 100%
% MPE (7 hours after i.v. 2.4 mg/kg): 72.7%
% MPE (9 hours after i.v. 2.4 mg/kg, hydrochloride, 2.4 mg/kg): 54%
% MPE (9 hours after i.v. 2.4 mg/kg, listed as buprenorphine, hydrochloride, 2.4 mg/kg): 54.4%
% MPE (12 hours after i.v. 2.4 mg/kg, hydrochloride, 2.4 mg/kg): 0%
% MPE (12 hours after i.v. 2.4 mg/kg, listed as buprenorphine, hydrochloride, 2.4 mg/kg): 8.1%
% MPE (18 hours after i.v. 2.4 mg/kg): 0%
% MPE (24 hours after i.v. 2.4 mg/kg): 0%
onset of analgesic effect (after i.v. 2.4 mg/kg): 15 min
duration of analgesic effect (after i.v. bolus 2.4 mg/kg): 9 h
analgesic effect observed (between 12 and 24 hours after i.v. 2.4 mg/kg): No analgesic effect

Reference: patent US20090239891A1 (priority 2006, published 2009)
